Experimental data taken from patent US12290511B2, “Pharmaceutical preparation containing pyridyl aminoacetic acid compound” (Santen Pharmaceutical Co., Ltd., priority 2017, dated 2025).

System: patients with primary open angle glaucoma or ocular hypertension resistant to treatment with latanoprost ophthalmic solution
Test: Clinical test: 0.002% (w/v) omidenepag isopropyl eye drop A in patients resistant to latanoprost ophthalmic solution
Assay type: in vivo, humans
Experimental: Examination was conducted on the efficacy of omidenepag isopropyl on patients with inadequate efficacies of other glaucoma or ocular hypertension therapeutic agents.
Omidenepag isopropyl, polyoxyl 35 castor oil, glycerin, citric acid, sodium citrate, sodium edetate, and benzalkonium chloride were dissolved into purified water to adjust the pH. Thereafter, purified water was added to adjust the total volume, thereby preparing a 0.002% (w/v) omidenepag isopropyl eye drop A.
Patients with primary open angle glaucoma or ocular hypertension were subjected to a washout period of 1 to 4 weeks, and then received a binocular instillation of 0.005% latanoprost ophthalmic solution in an amount of 1 drop once a day for 8 weeks as an induction phase (week −8 to baseline). The patients with primary open angle glaucoma (21 humans) or ocular hypertension (5 humans) resistant to treatment with latanoprost ophthalmic solution, whose rate of decrease in intraocular pressure from the start of instillation was 15% or less at the end of the induction phase, entered the treatment phase (baseline to week 4), and received a binocular instillation of the above-described 0.002% (w/v) omidenepag isopropyl eye drop A in an amount of 1 drop (about 0.03 mL) once a day for 4 weeks every day.

CC(C)OC(=O)CNc1cccc(CN(Cc2ccc(-n3cccn3)cc2)S(=O)(=O)c2cccnc2)n1 [omidenepag isopropyl, isopropyl (6-{[4-(pyrazol-1-yl)benzyl](pyridin-3-ylsulfonyl)aminomethyl}pyridin-2-ylamino)acetate]
intraocular pressure lowering compared with latanoprost instillation: lowers intraocular pressure to a greater extent than latanoprost instillation
